Test results from patent US10732108B2, “Fluorogenic water soluble hydrazine sensors” (priority 2017, dated 2020).

Experiment: Hydrazine diffusion into vesicles assay (fluorimetric kinetic hydrazine transmembrane diffusion, SUVs encapsulating compound 2)
Conditions: for hydrazine diffusion across a phospholipid membrane, t ½: FIG. 9, membranes of the phosphatidylcholine lipid
Experimental: (iii) Hydrazine Diffusion into Vesicles Assay
Example 5: Hydrazine Diffusion Assay Procedure
1.0 mg of phosphatidylcholine lipid in chloroform solution was dispensed into a 20 mL scintillation vial, dried under a stream of Ar, and put under house vacuum in a desiccator overnight. The vial was then removed from the desiccator, purged of air with a stream of Ar, closed, and sealed with Parafilm.
6.0 g of monobasic sodium phosphate was dissolved in 1 L MilliQ water to make a 50 mM solution. The pH of the solution was raised to 7.40 by addition of 5N NaOH (typically 9 mL). Depending on the amount of NaOH added, NaCl was added (typically 10 g) to form a 500 mosM buffer.
Loosely capped Falcon tubes containing 45 ml of buffer or MilliQ water were placed in a desiccator and put under house vacuum overnight. The desiccator was then filled with Ar by first capping the inlet with a rubber septum, then piercing the septum with two Ar-filled balloons with attached needles, then simultaneously closing the desiccator valve to vacuum and opening the desiccator valve to the inlet. The desiccator top was then removed and the Falcon tubes quickly closed and sealed with Parafilm.
425-430 mg of hydrazine hydrochloride was weighed and dispensed into a 25 ml reagent bottle pre-filled with Ar; the bottle was then purged of air with a stream of Ar and closed. 25 ml degassed MilliQ water was added to the bottle, along with 300 μl 5N NaOH, under a stream of Ar. The bottle was closed and shaken vigorously. The pH was then adjusted to 7.40±0.02 with 5N NaOH, purging of air with Ar immediately after each pH measurement with a glass electrode. The bottle was purged of air with a stream of Ar, closed, and sealed with Parafilm.
A suspension of Sepharose® CL-4B in 10-30% ethanol (Sigma) was added to an 8.5-cm size-exclusion column. Methanol was washed out of the column by flushing with at least 5 column volumes of 50 mM phosphate buffer (described above, section B). Then the column was capped with a rubber septum, the septum was pierced with an Ar-filled balloon with attached needle, and the column was run until the meniscus descended to the top of the resin. Then, under a stream of Ar, the head space was filled with degassed buffer (described above, section C) and the Falcon tube containing the degassed buffer was purged of any incidental air with a stream of Ar, then closed. […]
The vesicles were loaded onto the column under a stream of Ar and then degassed phosphate buffer was added to the column under a stream of Ar; the column was subsequently run under Ar. […] Vesicles were not visible by eye or upon exposure to a UV lamp; vesicles were detected by directing the beam from a 5 mW green laser pointer horizontally through the cuvette; upon elution of the vesicles, bright scattering was visible.

Row | Structure (SMILES) | hydrazine diffusion across a phospholipid membrane, t ½ | N2H4 Diff. t1/2 (min) pH = 6.30 (pH = 6.30, SUVs of the lipid) | N2H4 Diff. t1/2 (min) pH = 7.40 (pH = 7.40, SUVs of the lipid)
1 | CCCCCCCC/C=C\CCCCCCCC(=O)OC[C@H](COP(=O)([O-])OCC[N+](C)(C)C)OC(=O)CCCCCCC/C=C\CCCCCCCC [18:1 PC (DOPC)] | 0.907 ± 0.0933 h |  | 
2 | CCCCCCCC/C=C\CCCCCCCCCCCC(=O)OC[C@H](COP(=O)([O-])OCC[N+](C)(C)C)OC(=O)CCCCCCCCCCC/C=C\CCCCCCCC [di22:1 PC (DEPC)] | 1.65 ± 0.1 h | 583 ± 25 min | 98.9 ± 6.0 min
